According to US9987276B2 (Celgene CAR LLC, priority 2008, dated 2018):
Like-named read-outs stand apart in the source and are kept apart here.

What was measured:
ITK = ITK (Homo sapiens (Human), UniProt Q08881); assay: Omnia assay for potency assessment against active forms of ITK kinase; type: biochemical; conditions: [ITK]=10 nM, [ATP]=25, [Y6-Sox]=10 μM; read-out: ITK Inhibition
Method: [ITK]=10 nM, [ATP]=25 [Y6-Sox]=10 μM (ATP KMapp=33 μM).

BTK = BTK (Homo sapiens (Human), UniProt Q06187); assay: Omnia assay for potency assessment against BTK; type: biochemical; conditions: [BTK]=5 nM, Omnia assay; read-out: BTK Inhibition (IC50)
Chain of BTK (Q06187 whole entry): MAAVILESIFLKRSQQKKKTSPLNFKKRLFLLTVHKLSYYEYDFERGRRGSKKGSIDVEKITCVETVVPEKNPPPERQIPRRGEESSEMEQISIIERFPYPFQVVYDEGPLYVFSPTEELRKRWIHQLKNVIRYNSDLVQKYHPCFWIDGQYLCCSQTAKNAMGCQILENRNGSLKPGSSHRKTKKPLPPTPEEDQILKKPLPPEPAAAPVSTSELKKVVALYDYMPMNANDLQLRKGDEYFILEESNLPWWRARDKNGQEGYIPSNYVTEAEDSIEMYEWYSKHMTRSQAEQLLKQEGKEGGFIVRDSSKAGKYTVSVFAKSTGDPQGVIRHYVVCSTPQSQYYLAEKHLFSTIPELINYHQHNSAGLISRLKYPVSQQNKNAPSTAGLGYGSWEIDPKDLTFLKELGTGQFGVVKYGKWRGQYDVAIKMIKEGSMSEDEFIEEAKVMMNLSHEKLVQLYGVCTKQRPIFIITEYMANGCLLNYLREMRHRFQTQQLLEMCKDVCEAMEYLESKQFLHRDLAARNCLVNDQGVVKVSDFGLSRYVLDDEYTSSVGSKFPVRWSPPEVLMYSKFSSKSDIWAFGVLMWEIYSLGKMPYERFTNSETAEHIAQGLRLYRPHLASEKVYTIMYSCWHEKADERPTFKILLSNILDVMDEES
Method: The modified BTK-optimized reagent conditions for the above protocol are:
[BTK]=5 nM, [ATP]=[…], [Y5-Sox]=[…] (ATP KMapp˜[…]).

EGFR-WT = EGFR-WT (Homo sapiens (Human), UniProt P00533); assay: Omnia assay for potency assessment against EGFR (WT)
Chain of EGFR-WT (P00533 668-1210): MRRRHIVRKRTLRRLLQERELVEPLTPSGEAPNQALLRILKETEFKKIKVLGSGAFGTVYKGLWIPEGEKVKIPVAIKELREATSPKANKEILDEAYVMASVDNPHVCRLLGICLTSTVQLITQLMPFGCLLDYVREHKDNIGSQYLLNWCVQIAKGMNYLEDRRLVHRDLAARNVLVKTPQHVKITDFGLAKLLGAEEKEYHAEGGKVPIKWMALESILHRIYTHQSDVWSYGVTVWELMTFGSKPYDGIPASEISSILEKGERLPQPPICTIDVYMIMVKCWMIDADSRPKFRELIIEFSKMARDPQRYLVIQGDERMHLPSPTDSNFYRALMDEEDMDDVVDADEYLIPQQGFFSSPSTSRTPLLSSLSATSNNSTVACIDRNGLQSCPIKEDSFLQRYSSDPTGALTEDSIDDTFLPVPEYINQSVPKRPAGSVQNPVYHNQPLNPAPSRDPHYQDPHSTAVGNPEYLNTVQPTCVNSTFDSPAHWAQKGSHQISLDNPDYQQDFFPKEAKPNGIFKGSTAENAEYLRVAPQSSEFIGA

[1] = read-out: EGFR (wild type inhibition), EGFR wild type

Chain of ITK (Q08881 whole entry): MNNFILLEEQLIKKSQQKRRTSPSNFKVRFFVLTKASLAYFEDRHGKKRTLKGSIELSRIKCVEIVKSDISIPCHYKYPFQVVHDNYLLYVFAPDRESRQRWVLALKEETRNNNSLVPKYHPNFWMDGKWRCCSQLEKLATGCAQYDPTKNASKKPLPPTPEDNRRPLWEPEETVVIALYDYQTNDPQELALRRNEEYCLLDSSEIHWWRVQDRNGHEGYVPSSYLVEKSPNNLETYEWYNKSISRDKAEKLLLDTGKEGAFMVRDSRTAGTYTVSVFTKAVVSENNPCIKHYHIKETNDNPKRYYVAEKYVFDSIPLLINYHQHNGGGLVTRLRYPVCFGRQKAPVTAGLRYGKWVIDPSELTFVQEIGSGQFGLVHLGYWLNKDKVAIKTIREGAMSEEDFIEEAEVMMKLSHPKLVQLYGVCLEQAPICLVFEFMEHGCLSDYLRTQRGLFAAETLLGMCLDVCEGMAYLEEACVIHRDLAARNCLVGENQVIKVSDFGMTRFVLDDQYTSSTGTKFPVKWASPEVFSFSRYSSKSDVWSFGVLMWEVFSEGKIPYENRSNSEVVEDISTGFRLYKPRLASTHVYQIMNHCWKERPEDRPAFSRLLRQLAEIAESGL

| IC50 (ITK) [nM] | IC50 (BTK) [nM] | IC50 (EGFR-WT; [1]) [nM] | IC50 (EGFR-WT) [nM] | Molecule |
| --- | --- | --- | --- | --- |
| < 10 | < 10 | < 10 |  | C=CC(=O)Nc1cccc(Nc2nc(Nc3ccc4c(cnn4C)c3)ncc2F)c1 [Compound I-155] |
| < 10 | < 10 | < 10 |  | C=CC(=O)Nc1cccc(Nc2nc(Nc3ccc(OCC4CCN(C)CC4)cc3)ncc2F)c1 [Compound I-90, N-(3-(5-fluoro-2-(4-((1-methylpiperidin-4-yl)methoxy)phenylamino)pyrimidin-4-ylamino)phenyl)acrylamide] |
| 10 to 100 |  |  | 10 to 100 | C=CC(=O)Nc1cccc(Nc2nc(Nc3cccc(OCCCS(C)(=O)=O)c3)ncc2F)c1 [Compound I-138, 4-(3-acrylamidophenylamino)-5-fluoro-2-(3-(3-(methylsulfonyl)propoxy)phenylamino)-pyrimidine] |
| < 10 | < 10 |  | 10 to 100 | C=CC(=O)Nc1cccc(Nc2nc(Nc3cccc(OCCCNC(=O)CCCC[C@@H]4SC[C@@H]5NC(=O)N[C@@H]54)c3)ncc2C)c1 [Compound I-237, N-(3-(3-(4-(3-acrylamidophenylamino)-5-methylpyrimidin-2-ylamino)phenoxy)propyl)-5-((3aS,4S,6aR)-2-oxohexahydro-1H-thieno[3,4-d]imidazol-4-yl)pentanamide] |
| 10 to 100 | < 10 |  | 10 to 100 | C=CC(=O)Nc1cccc(Nc2nc(Nc3ccc(Cl)c(OC(C)CO)c3)ncc2F)c1 (centres unmarked) [Compound I-337, N-(3-(2-(4-chloro-3-(1-hydroxypropan-2-yloxy)phenylamino)-5-fluoropyrimidin-4-ylamino)phenyl)acrylamide] |
| < 10 | < 10 | < 10 |  | C=CC(=O)Nc1cccc(Nc2nc(Nc3ccc(N4CCS(=O)(=O)CC4)nc3)ncc2F)c1 [Compound I-72, N-(3-(5-fluoro-2-(6-(1,1-dioxidothiomorpholin-4-yl)pyridin-3-ylamino)pyrimidin-4-ylamino)phenyl)acrylamide] |
| 100 to 1000 | < 10 |  | 100 to 1000 | C=CC(=O)Nc1cccc(Nc2nc(Nc3ccc(Cl)c(O[C@H]4CCOC4)c3)ncc2F)c1 [Compound I-354, (S)—N-(3-(2-(4-chloro-3-(tetrahydrofuran-3-yloxy)phenylamino)-5-fluoropyrimidin-4-ylamino)phenyl)acrylamide] |
| < 10 | < 10 |  | 10 to 100 | C=C(C)C(=O)c1ccc(Nc2nc(Nc3ccc(OCCOC)c(F)c3)ncc2F)cc1 [Compound I-324, 1-(4-(5-fluoro-2-(3-fluoro-4-(2-methoxyethoxy)phenylamino)pyrimidin-4-ylamino)phenyl)-2-methylprop-2-en-1-one] |
| 10 to 100 | < 10 |  | 100 to 1000 | C=CC(=O)Nc1cccc(Nc2nc(Nc3ccc(OCCOCCNC(=O)OC(C)(C)C)c(F)c3)ncc2F)c1 [Compound I-356, tert-butyl 2-(2-(4-(4-(3-acrylamidophenylamino)-5-fluoropyrimidin-2-ylamino)-2-fluorophenoxy)ethoxy)ethylcarbamate] |
| 10 to 100 | < 10 |  | 100 to 1000 | C=CC(=O)N1CCc2ccc(Nc3nc(Nc4ccc(OCCOC)cc4)ncc3F)cc21 [Compound I-94, 1-(6-(5-fluoro-2-(4-(2-methoxyethoxy)phenylamino)pyrimidin-4-ylamino)indolin-1-yl)prop-2-en-1-one] |
| < 10 | < 10 |  |  | C=CC(=O)Nc1cccc(Nc2nc(Nc3ccc(OCC(C)(C)O)cc3)ncc2F)c1 [Compound I-73, N-(3-(5-fluoro-2-(4-(2-hydroxy-2-methylpropoxy)phenylamino)pyrimidin-4-ylamino)phenyl)acrylamide] |
| 10 to 100 | < 10 |  |  | C=CC(=O)N(C)Cc1ccc(Oc2nc(Nc3cccc(OCCN4CCCC4=O)c3)ncc2F)cc1 [Compound I-146, N-(4-(5-fluoro-2-(3-(2-(2-oxopyrrolidin-1-yl)ethoxy)phenylamino)pyrimidin-4-yloxy)benzyl)-N-methylacrylamide] |
|  | < 10 |  | 100 to 1000 | C=CC(=O)Nc1cccc(Nc2nc(Nc3ccc(Cl)c(O[C@@H]4CCOC4)c3)ncc2F)c1 [Compound I-341, (R)—N-(3-(2-(4-chloro-3-(tetrahydrofuran-3-yloxy)phenylamino)-5-fluoropyrimidin-4-ylamino)phenyl)acrylamide] |
|  | > 10000 | 1000 to 10000 |  | CC(C)=CC(=O)c1cccc(Nc2nc(Nc3cccc(OC(F)(F)F)c3)ncc2F)c1 [Compound I-223, 1-(3-(5-fluoro-2-(3-(trifluoromethoxy)phenylamino)pyrimidin-4-ylamino)phenyl)-3-methylbut-2-en-1-one] |
|  | < 10 | < 10 |  | C=C(C)C(=O)Cc1cccc(Nc2nc(Nc3ccc(OCCOC)c(F)c3)ncc2F)c1 [Compound I-328, 1-(3-(5-fluoro-2-(3-fluoro-4-(2-methoxyethoxy)phenylamino)pyrimidin-4-ylamino)phenyl)-3-methylbut-3-en-2-one] |
|  | < 10 |  | 100 to 1000 | C=CC(=O)Nc1ccc(Nc2nc(Nc3ccc(OCCOC)c(F)c3)ncc2F)cc1 [Compound I-351, N-(4-(5-fluoro-2-(3-fluoro-4-(2-methoxyethoxy)phenylamino)pyrimidin-4-ylamino)phenyl)acrylamide] |
| 10 to 100 |  |  | 10 to 100 | C=CC(=O)Nc1cccc(Nc2nc(Nc3ccc(OCC(C)(C)O)c(F)c3)ncc2F)c1 [Compound I-315, N-(3-(5-fluoro-2-(3-fluoro-4-(2-hydroxy-2-methylpropoxy)phenylamino)pyrimidin-4-ylamino)phenyl)acrylamide] |
|  | < 10 | < 10 |  | C=CC(=O)Nc1cccc(Nc2nc(Nc3ccc(OCC(O)CO)cc3)ncc2F)c1 (centres unmarked) [Compound I-335, N-(3-(2-(4-(2,3-dihydroxypropoxy)phenylamino)-5-fluoropyrimidin-4-ylamino)phenyl)acrylamide] |
|  | 10 to 100 | 1000 to 10000 |  | C=CC(=O)N1CCC[C@H](Nc2nc(Nc3cccc(OC)c3)ncc2F)C1 [Compound I-196, (S)-1-(3-(5-fluoro-2-(3-methoxyphenylamino)pyrimidin-4-ylamino)piperidin-1-yl)prop-2-en-1-one] |
|  | 100 to 1000 | 1000 to 10000 |  | C/C=C/C(=O)OCc1ccc(Nc2nc(Nc3ccccc3)ncc2C)cc1 [Compound I-60, (E)-4-(5-methyl-2-(phenylamino)pyrimidin-4-ylamino) benzyl but-2-enoate] |
|  | < 10 |  | 10 to 100 | C=CC(=O)Nc1cccc(Nc2nc(Nc3ccc4c(c3)OCCO4)ncc2F)c1 [Compound I-349] |
|  | 10 to 100 |  | 100 to 1000 | C=CC(=O)N1CCC(Nc2nc(Nc3ccc(OC)nc3)ncc2F)C1 (centres unmarked) [Compound I-203, 1-(3-(5-fluoro-2-(6-methoxypyridin-3-ylamino)pyrimidin-4-ylamino)pyrrolidin-1-yl)prop-2-en-1-one] |
|  | < 10 |  | 100 to 1000 | C=CC(=O)Nc1cccc(Nc2nc(Nc3ccc(Cl)c(O[C@H](C)CO)c3)ncc2F)c1 [Compound I-358, (R)—N-(3-(2-(4-chloro-3-(1-hydroxypropan-2-yloxy)phenylamino)-5-fluoropyrimidin-4-ylamino)phenyl)acrylamide] |
| 10 to 100 |  |  | 10 to 100 | C=CC(=O)Nc1cccc(Nc2nc(Nc3cccc(OCCCn4ccnc4)c3)ncc2F)c1 [Compound I-204, N-(3-(2-(3-(3-(1H-imidazol-1-yl)propoxy)phenylamino)-5-fluoropyrimidin-4-ylamino)phenyl)acrylamide] |
|  | < 10 |  | 100 to 1000 | C=CC(=O)N(C)Cc1ccc(Nc2nc(Nc3cccc(OC)c3)ncc2F)cc1 [Compound I-113, N-(4-(5-fluoro-2-(3-methoxyphenylamino)pyrimidin-4-ylamino)benzyl)-N-methylacrylamide] |
|  | < 10 | < 10 |  | C=CC(=O)Nc1cccc(Oc2nc(Nc3cccc(OCC4CCCN(C)C4)c3)ncc2F)c1 (centres unmarked) [Compound I-81, N-(3-(5-fluoro-2-(3-((1-methylpiperidin-3-yl)methoxy)phenylamino)pyrimidin-4-yloxy)phenyl)acrylamide] |
|  | < 10 |  | 100 to 1000 | C=CC(=O)N(C)Cc1ccc(Oc2nc(Nc3cccc(OCCCS(C)(=O)=O)c3)ncc2F)cc1 [Compound I-136, N-(4-(5-fluoro-2-(3-(3-(methylsulfonyl)propoxy)phenylamino)pyrimidin-4-yloxy)benzyl)-N-methylacrylamide] |
|  | 10 to 100 |  | 10 to 100 | Cc1cccc(Nc2nc(Nc3cccc(NC(=O)/C=C/CN4C[C@@H]5C[C@H]4CN5)c3)ncc2F)c1 [Compound I-101, (E)-4-((1S,4S)-2,5-diazabicyclo[2.2.1]heptan-2-yl)-N-(3-(5-fluoro-4-(m-tolylamino)pyrimidin-2-ylamino)phenyl)but-2-enamide] |
|  | 100 to 1000 | > 10000 |  | C=CC(=O)N1CCC[C@@H](Sc2nc(Nc3cccc(OC)c3)ncc2F)C1 [Compound I-137, (R)-1-(3-(5-fluoro-2-(3-methoxyphenylamino)pyrimidin-4-ylthio)piperidin-1-yl)prop-2-en-1-one] |
|  | 1000 to 10000 | > 10000 |  | C=CC(=O)Nc1cccc(Nc2nc(Nc3cccnc3)ncc2F)c1 [Compound I-234, N-(3-(5-fluoro-2-(pyridin-3-ylamino)pyrimidin-4-ylamino)phenyl)acrylamide] |

| Molecule | IC50 (ITK) [nM] | IC50 (BTK) [nM] | IC50 (EGFR-WT; [1]) [nM] | IC50 (EGFR-WT) [nM] |
| --- | --- | --- | --- | --- |
| N^1-(2-(2-(4-(4-(3-acrylamidophenylamino)-5-fluoropyrimidin-2-ylamino)-2-fluorophenoxy)ethoxy)ethyl)-N^5-(15-oxo-18-((3aR,4R,6aS)-2-oxohexahydro-1H-thieno[3,4-d]imidazol-4-yl)-4,7,10-trioxa-14-azaoctadecyl)glutaramide [Compound I-362] | 10 to 100 | < 10 |  |  |
